Measurements: US20110142873A1 (priority 2006, published 2011)

Experiments:
[1] = test system: E7-specific CD8-positive T lymphocytes; parameters: species or system C57Bl/6 mice; settings: mouse, in vivo
[2] = test system: E7-expressing TC-1 tumors; parameters: species or system C57BL/6 mice; settings: mouse, in vivo, sc
E7 and HspE7 = test system: E7 and HspE7; parameters: species or system C57Bl/6 female mice; settings: mouse, in vivo
[3] = test system: E7-expressing TC-1.K tumor cells; assay: Regression of large, established TC-1 tumors treated from day 28; parameters: species or system C57Bl/6 mice; settings: mouse, in vivo

PolyI:C
biological activity of immune stimulant administered in the absence of HspE7 [1]: did not display this activity
anti-tumor activity [2]: no effect on tumor growth

PolyICLC
biological activity of immune stimulant administered in the absence of HspE7 [1]: did not display this activity
antibody response to E7 and HspE7 (E7 and HspE7): did not produce an antibody response
regression of large, established tumors [3]: no regression
